≈ marks a conversion by molar mass, not a printed value. Where a name gives a salt, the structure may show the parent alone. Read-outs that look alike come from different tables or passages of the source.
Assays:
visna virus = assay: Inhibition of visna virus-induced CPE in sheep choroid plexus (SCP) cells; type: cell-based, strain 1514; conditions: Visna-maedi virus, 144 h
Source text: Activity of 9-[(2-hydroxy-1,3,2-dioxophosphorian-5-yl)oxymethyl]guanine P-oxide, sodium salt (2'-NOR-cGMP) against visna virus in sheep choroid plexus cells.
Visna virus, strain 1514, is a lentivirus of the retrovirus family. It was chosen because of its genetic and biologic similarity to the human immunodeficiency viruses (HIV). Since visna virus and the human immunodeficiency virus are closely related retroviruses, activity against the visna virus by a compound is felt to predict activity against the human immunodeficiency virus by the same compound. (See Visna Virus as an In Vitro Model for Human Immunodeficiency Virus and Inhibition by Ribavirin, Phosphonoformate, and 2',3'-Dideoxy-nucleosides, Frank K. B.; McKernan P.A.; Smith R.A.; Smee D.F.; Antimicrobiol Agents and Chemotherapy, Sept. 1987; Vol. 31, No. 9 Pg 1369-1374.) The virus has been cultivated and plaque purified in SCP cells fed with MEM, HEPES, gentamicin and 2% lamb serum.
(§1) Visna virus is cultivated in low passage cells derived from the choroid plexus (SCP) of a newborn lamb. The choroid plexus is dissected from the newborn lamb, minced and diluted in minimum essential medium (MEM), containing 20% fetal bovine serum (FBS), 1 mM N 2-hydroxyethylpiperazine-N'-2-ethane sulfonic acid (HEPES), 50 μg/ml gentamicin at PH 7.4. After initial cultivation, cells are dispersed by addition of trypsin (0.25%) plus EDTA, split 1:2 and added to MEM+10% FBS, HEPES, gentamicin and reincubated. At approximately passage 4 there are adequate numbers of cells for freezing and storage in liquid nitrogen.
(§2) For antiviral assays, 0.2 ml SCP cells (0.7×10^5 cells/ml) are inoculated into wells of 96 well microtiter plates and incubated for 18-24 hours.
(§3) The medium is decanted from the cells, and drug and virus(~320-50% infectious doses) are added within 15 minutes. Each concentration of drug (serial two-fold or half-log dilutions) are added in 0.1 ml volumes to each of 6 wells. Visna virus is added (0.1 ml) to 4 wells for observation of virus inhibitory activity.
(§4) Virus free test medium is added to two wells (0.1 mL) for observation of drug cytotoxicity. Experimental controls include: cell control (cells with 0.2 mL medium) and virus controls (cells with 0.1 mL virus and 0.1 mL medium). The degree of CPE inhibition and drug cytotoxicity in comparison with virus and cell controls is observed microscopically after 6 days of incubation at 37° C. Fresh medium and drug dilutions are placed on the cells after 3 days of incubation. Virus CPE and drug cytotoxicity are scored on a 0-4 basis with 4 representing total cell destruction. The lowest concentration of drug producing ≥50% inhibition of virus-induced CPE is considered the minimum inhibitory concentration (MIC). The lowest concentration of drug producing a score of […] or visable alteration in cell morphology will be considered the minimum cytotoxic concentration (MCC). Using the observed percent CPE, the MIC will be calculated by linear regression analysis.

in vitro = type: cell-based; conditions: sheep, choroid plexus cells
Method: as §1, §2, §3, §4

[1] = mean of individual values, ≥50% inhibition of virus-induced CPE, 6 days, 37° C, sheep choroid plexus cells, read-out: MIC (minimum inhibitory concentration), Mean
[2] = MCC (minimum cytotoxic concentration), Range
[3] = read-out: MIC (minimum inhibitory concentration), Mean

MIC (visna virus; [1])	Compound	MCC at 144 h (in vitro; [2])	MIC (visna virus; [3])	MCC at 144 h (in vitro; range of individual values, 6 days, 37° C, virus free, read-out: MCC (minimum cytotoxic concentration), Range)	MCC at 144 h (in vitro; lowest concentration producing a score of ≤1 or visible alteration in cell morphology, 6 days, 37° C, virus free, read-out: MCC (minimum cytotoxic concentration), Individual Values)	MIC (visna virus; read-out: MIC (minimum inhibitory concentration), Individual Values)	MCC at 144 h (in vitro; MCC (minimum cytotoxic concentration), Individual Values)
175 mg/L (≈ 718 µM)	NC(=O)c1ncn([C@@H]2O[C@H](CO)[C@@H](O)[C@H]2O)n1 [Virazole]	100 to 320 µg/mL					
24 mg/L	Nc1nc2c(ncn2COC2COP(=O)(O)OC2)c(=O)[nH]1 (centres unmarked) [2'-nor-cGMP, 9-[(2-hydroxy-1,3,2-dioxophosphorian-5-yl)oxymethyl]guanine P-oxide, sodium salt]	32 to 100 µg/mL					
	O=C(O)P(=O)(O)O [Phosphonoformate]		57.4 mg/L (≈ 456 µM)	100 µg/mL	100 µg/mL		
	Cc1cn([C@H]2C[C@H](N=[N+]=[N-])[C@@H](CO)O2)c(=O)[nH]c1=O [Azidothymidine]	40 µg/mL	10 mg/L (≈ 37.4 µM)			10 mg/L (≈ 37.4 µM)	40 µg/mL
